Source: publication PMC6152322, “Synthesis and Evaluation of New Oxadiazole, Thiadiazole, and Triazole Derivatives as Potential Anticancer Agents Targeting MMP-9” (Molecules : A Journal of Synthetic Chemistry and Natural …, 2017)
Like-named read-outs stand apart in the source and are kept apart here.

Columns and labels:
[1] = test system: NIH/3T3 mouse embryonic fibroblast cell line; test: XTT cytotoxicity assay on NIH/3T3 cells; assay type: cell-based; details: NIH3T3, 24 h incubation, Mean ± standard deviation, read-out: IC50 Values for Cell Lines NIH/3T3
From the text: (§1) NIH/3T3 Mouse embryonic fibroblast (ATCC® CRL-1658™, American Type Culture Collection (ATCC), Manassas, VA, USA), A549 human lung adenocarcinoma (ATCC® CCL-185™, American Type Culture Collection (ATCC), Manassas, VA, USA) and C6 rat glioma (ATCC® CCL-107™, American Type Culture Collection (ATCC), Manassas, VA, USA) cell lines were used for cytotoxicity tests. NIH/3T3 cell line was used to investigate the selectivity of the compounds, whereas other cell lines were used to determine anticancer activity. All cell lines were incubated according to the instructions of the supplier at 37 °C in a humidified atmosphere of 95% air and 5% CO2. NIH/3T3, A549 and C6 cells were seeded at 1 × 10^4 cells into each well of 96-well plate. After 24 h of incubating period, the culture mediums were removed and compound was added to culture medium at 500–3.9 μg/mL doses with a dilution factor of 2 (3.9, 7.8, 15.6, 31.2, 62.5, 125, 250, 500 μg/mL). After 24 h of incubation, XTT (2,3-bis(2-methoxy-4-nitro-5-sulfophenyl)-2H-tetrazolium-5-carboxanilide) assay was performed using the In Cytotox-XTT 1 Parameter Cytotoxicity Kit (Xenometrix, Allschwil, Switzerland) as previously described. […] All experiments were done in quadruplicates at three different time points, and the results were given as Mean ± standard deviation. Cisplatin was used as a positive control. The stock solutions of the compounds were prepared in dimethyl sulfoxide (DMSO) and further dilutions were made with fresh culture medium. The final DMSO concentration was under 0.1%.
(§2) Inhibition%=100−( corrected mean OD sample/corrected mean OD solvent controls ×100)

[2] = test system: A549 human lung adenocarcinoma cell line; test: XTT cytotoxicity assay on A549 cells; assay type: cell-based; details: for IC50: Mean ± standard deviation, read-out: IC50 Values for Cell Lines A549
From the text: as §1, §2

C6 rat glioma cell line = test: XTT cytotoxicity assay on C6 cells; assay type: cell-based; details: 24 h incubation, Mean ± standard deviation, read-out: IC50 Values for Cell Lines C6
From the text: as §1, §2

MMP-8 = target: T1, MMP-8 (Homo sapiens, UniProt P22894); test: MMP-8 colorimetric inhibition assay; assay type: biochemical; details: for Inhibition % (Mean ± SD) MMP-8: 1.3 μM
T1 construct: purchased Enzo Life Sciences Inc
T1 sequence (P22894 101-467): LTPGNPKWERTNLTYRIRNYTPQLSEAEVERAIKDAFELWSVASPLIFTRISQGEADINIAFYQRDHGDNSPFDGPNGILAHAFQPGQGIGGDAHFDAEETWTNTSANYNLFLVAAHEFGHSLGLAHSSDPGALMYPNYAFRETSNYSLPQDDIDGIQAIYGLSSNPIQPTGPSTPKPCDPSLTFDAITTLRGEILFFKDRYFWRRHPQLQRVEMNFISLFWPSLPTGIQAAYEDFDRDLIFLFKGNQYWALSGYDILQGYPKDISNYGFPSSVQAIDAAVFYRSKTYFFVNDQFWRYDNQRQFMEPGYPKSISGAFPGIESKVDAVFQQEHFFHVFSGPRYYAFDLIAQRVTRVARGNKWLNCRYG
From the text: (§3) MMP-1, -2, -8, -9, -13 colorimetric kits were purchased from Enzo Life Sciences Inc. (Farmingdale, New York, NY, USA). The MMP Colorimetric Drug Discovery Kits are complete assay system designed to screen MMP inhibitors using a thiopeptide as a chromogenic substrate (Ac-PLG-[2-mercapto-4-methyl-pentanoyl]-LG-OC2H5). The MMP cleavage site peptide bond is replaced by a thioester bond in the thiopeptide. Hydrolysis of this bond by a MMP produces a sulfhydryl group, which reacts with DTNB [5,5′-dithiobis(2-nitrobenzoic acid), Ellman’s reagent] to form 2-nitro-5-thiobenzoic acid, which can be detected by its absorbance at 412 nm. The assays were conducted in triplicate. The UV absorbance was read at 412 nm using a microplate reader (BioTek, PowerWave, Gen5 software, Winooski, VT, USA) at room temperature. NNGH was used as a control inhibitor. Data was expressed as Mean ± SD [63].
(§4) The inhibitor% remaining activity of MMPs was calculated using the following equation: Inhibitor% activity remaining = (V inhibitor/V control) × 100
(§5) The inhibition (percent) of MMPs was calculated using the following equation:I (%) = 100 − Inhibitor% activity remaining

MMP-9 = target: T2, MMP-9 (Homo sapiens, UniProt P14780); test: MMP-9 colorimetric inhibition assay; assay type: biochemical; details: for inhibition at 1.3 µM: read-out: Inhibition % (Mean ± SD) MMP-9
T2 construct: purchased Enzo Life Sciences Inc
T2 sequence (P14780 94-707): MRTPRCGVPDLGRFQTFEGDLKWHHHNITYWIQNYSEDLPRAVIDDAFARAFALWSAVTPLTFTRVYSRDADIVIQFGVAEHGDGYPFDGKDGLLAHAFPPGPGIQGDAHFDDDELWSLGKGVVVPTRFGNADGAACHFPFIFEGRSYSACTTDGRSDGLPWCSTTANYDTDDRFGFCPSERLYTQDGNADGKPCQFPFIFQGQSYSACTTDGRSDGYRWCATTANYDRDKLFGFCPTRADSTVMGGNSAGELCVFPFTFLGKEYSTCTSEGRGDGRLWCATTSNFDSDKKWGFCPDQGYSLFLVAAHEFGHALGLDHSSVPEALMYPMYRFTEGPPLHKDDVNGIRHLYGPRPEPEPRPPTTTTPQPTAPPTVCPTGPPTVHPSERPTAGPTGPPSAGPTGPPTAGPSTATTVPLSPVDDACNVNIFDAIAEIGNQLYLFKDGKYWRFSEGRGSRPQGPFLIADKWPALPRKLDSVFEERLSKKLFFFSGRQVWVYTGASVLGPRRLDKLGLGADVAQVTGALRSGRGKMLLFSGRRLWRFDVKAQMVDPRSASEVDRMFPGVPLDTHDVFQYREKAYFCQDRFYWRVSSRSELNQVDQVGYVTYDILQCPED
From the text: as §3, §4, §5

MMP-1 = target: T3, MMP-1 (Homo sapiens, UniProt P03956); test: MMP-1 colorimetric inhibition assay; assay type: biochemical; details: 1.3 μM
T3 construct: purchased Enzo Life Sciences Inc
T3 sequence (P03956 100-469): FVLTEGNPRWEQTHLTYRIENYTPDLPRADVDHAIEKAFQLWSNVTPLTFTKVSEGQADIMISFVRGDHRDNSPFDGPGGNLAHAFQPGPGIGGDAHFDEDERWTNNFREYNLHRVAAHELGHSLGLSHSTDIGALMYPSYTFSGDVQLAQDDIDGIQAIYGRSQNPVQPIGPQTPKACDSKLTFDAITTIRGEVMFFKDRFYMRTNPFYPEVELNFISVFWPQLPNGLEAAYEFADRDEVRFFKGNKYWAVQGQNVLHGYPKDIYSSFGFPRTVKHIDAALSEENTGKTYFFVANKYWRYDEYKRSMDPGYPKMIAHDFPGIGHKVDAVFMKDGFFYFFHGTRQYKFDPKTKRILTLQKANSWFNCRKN
From the text: as §3, §4, §5

MMP-2 = target: T4, MMP-2 (Homo sapiens, UniProt P08253); test: MMP-2 colorimetric inhibition assay; assay type: biochemical; details: 1.3 μM
T4 construct: purchased Enzo Life Sciences Inc
T4 sequence (P08253 110-660): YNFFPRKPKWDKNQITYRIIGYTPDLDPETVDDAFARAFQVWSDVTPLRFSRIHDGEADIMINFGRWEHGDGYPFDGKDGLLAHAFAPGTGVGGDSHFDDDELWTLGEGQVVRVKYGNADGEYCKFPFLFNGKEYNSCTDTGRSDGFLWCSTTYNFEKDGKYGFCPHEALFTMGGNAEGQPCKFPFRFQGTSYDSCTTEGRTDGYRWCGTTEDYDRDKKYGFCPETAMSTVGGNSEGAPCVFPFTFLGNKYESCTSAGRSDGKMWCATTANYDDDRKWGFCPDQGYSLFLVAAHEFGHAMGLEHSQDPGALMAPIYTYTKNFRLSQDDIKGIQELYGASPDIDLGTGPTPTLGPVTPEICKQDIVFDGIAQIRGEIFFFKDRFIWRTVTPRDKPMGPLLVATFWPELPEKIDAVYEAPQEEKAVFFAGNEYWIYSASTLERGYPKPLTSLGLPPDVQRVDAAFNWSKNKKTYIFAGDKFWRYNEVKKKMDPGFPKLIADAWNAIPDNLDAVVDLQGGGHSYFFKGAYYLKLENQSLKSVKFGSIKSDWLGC
From the text: as §3, §4, §5

MMP-13 = target: T5, MMP-13 (Homo sapiens, UniProt P45452); test: MMP-13 colorimetric inhibition assay; assay type: biochemical; details: 1.3 μM
T5 construct: purchased Enzo Life Sciences Inc
From the text: as §3, §4, §5

[3] = Homo sapiens, A549, 24 h incubation

Row | Structure (SMILES) | IC50 [1] [µM] | IC50 [2, 3] [µM] | IC50 (C6 rat glioma cell line; Rattus norvegicus, Glioma cell) [µM] | melting point [°C] | also measured
1 | O=C(CSc1nnc(COc2ccc3c(c2)CCCC3)o1)NCc1ccc2c(c1)OCO2 [Compound 8, N-(1,3-Benzodioxol-5-ylmethyl)-2-{[5-(((5,6,7,8-tetrahydronaphthalen-2-yl)oxy)methyl)-1,3,4-oxadiazol-2-yl]thio}acetamide] | > 1100 | 125 ± 20 | 137 ± 15 | 96 | Inhibition % (Mean ± SD) MMP-8 (MMP-8): no inhibitory activity; inhibition at 1.3 µM (MMP-9): 25.8 ± 2.16%
2 | COc1ccc(OCc2nnc(SCC(=O)NCc3ccc4c(c3)OCO4)o2)cc1 [Compound 7, N-(1,3-Benzodioxol-5-ylmethyl)-2-{[5-((4-methoxyphenoxy)methyl)-1,3,4-oxadiazol-2-yl]thio}acetamide] | 100 ± 11 | > 1170 | > 1170 | 127 | cytotoxic activity against A549 cell line (in words) ([2]; 24 h incubation): did not show any cytotoxic activity
3 | O=C(CSc1nnc(Nc2ccc(Cl)cc2Cl)s1)N1CCOCC1 [Compound 1, 2-{[5-((2,4-Dichlorophenyl)amino)-1,3,4-thiadiazol-2-yl]thio}-1-morpholinoethan-1-one] | 308 ± 37 | > 1230 | 128 ± 27 | 154 | inhibition at 1.3 µM (MMP-8; read-out: Inhibition % (Mean ± SD) MMP-8): 15 ± 1.4%; inhibition at 1.3 µM (MMP-9): 24.8 ± 0.86%
4 | COc1ccc(S(=O)(=O)N(CC(=O)NO)CC(C)C)cc1 [NNGH, N-isobutyl-N-(4-methoxyphenylsulfonyl)glycyl hydroxamic acid] | – | – | – | – | Inhibition % (Mean ± SD) MMP-1 (MMP-1): 87.79 ± 3.49%; Inhibition % (Mean ± SD) MMP-2 (MMP-2): 100%; Inhibition % (Mean ± SD) MMP-8 (MMP-8): 100%; Inhibition % (Mean ± SD) MMP-9 (MMP-9; 1.3 μM): 88.44 ± 3.35%; Inhibition % (Mean ± SD) MMP-13 (MMP-13): 93.74 ± 3.06%
5 | Nn1c(COc2ccccc2)nnc1SCC(=O)NCc1ccc2c(c1)OCO2 [Compound 6, 2-{[4-Amino-5-(phenoxymethyl)-4H-1,2,4-triazol-3-yl]thio}-N-(1,3-benzodioxol-5-ylmethyl)acetamide] | > 1210 | > 1210 | > 1210 | 148 | cytotoxic activity against A549 cell line (in words) ([2]; 24 h incubation): did not show any cytotoxic activity
6 | O=C(CSc1nnc(COc2ccc3c(c2)CCCC3)o1)N1CCOCC1 [Compound 4, 2-{[5-(((5,6,7,8-Tetrahydronaphthalen-2-yl)oxy)methyl)-1,3,4-oxadiazol-2-yl]thio}-1-morpholinoethan-1-one] | 1280 ± 90 | > 1280 | > 1280 | – | –
7 | Nn1c(COc2ccccc2)nnc1SCC(=O)N1CCOCC1 [Compound 2, 2-{[4-Amino-5-(phenoxymethyl)-4H-1,2,4-triazol-3-yl]thio}-1-morpholinoethan-1-one] | 1410 ± 94 | > 1430 | > 1430 | 213 | –
8 | O=C(CSc1nnc(Nc2ccc(Cl)cc2Cl)s1)NCc1ccc2c(c1)OCO2 [Compound 5, N-(1,3-Benzodioxol-5-ylmethyl)-2-{[5-((2,4-dichlorophenyl)amino)-1,3,4-thiadiazol-2-yl]thio}acetamide] | > 1070 | > 1070 | > 1070 | 187 | cytotoxic activity against A549 cell line (in words) ([2]; 24 h incubation): did not show any cytotoxic activity
9 | COc1ccc(OCc2nnc(SCC(=O)N3CCOCC3)o2)cc1 [Compound 3, 2-{[5-((4-Methoxyphenoxy)methyl)-1,3,4-oxadiazol-2-yl]thio}-1-morpholinoethan-1-one] | 1370 ± 74 | 1370 ± 58 | 507 ± 49 | 119 | –
10 | O=C(CSc1nnc(-c2ccccc2)o1)NCc1ccc2c(c1)OCO2 [Compound 9, N-(1,3-Benzodioxol-5-ylmethyl)-2-[(5-phenyl-1,3,4-oxadiazol-2-yl)thio]acetamide] | 888 ± 29 | 349 ± 46 | 157 ± 16 | 136 | Inhibition % (Mean ± SD) MMP-8 (MMP-8): no inhibitory activity; inhibition at 1.3 µM (MMP-9): 30.5 ± 3.27%
11 | N.N.[Cl][Pt][Cl] [Cisplatin, reference compound] | – | – | – | – | IC50 ([2]; 24 h incubation): 140 ± 30 µM; IC50 (C6 rat glioma cell line): 103 ± 26 µM
